Results as given in PubChem BioAssay (NCI).
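Following 48 hours of exposure in 96-well plates, responses at five concentrations were used to interpolate endpoints linearly. Here, GI50 denotes the concentration required for 50% inhibition of growth. Definition used: TGI = concentration required for complete inhibition of growth.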

Tests used:
Test in all cases: growth of human tumour cells (NCI), 48 h
HCT-116 colon = test system: HCT-116 colon
SNB-19 CNS = test system: SNB-19 CNS
MOLT-4 leukemia = test system: MOLT-4 leukemia
OVCAR-8 ovarian = test system: OVCAR-8 ovarian
OVCAR-3 ovarian = test system: OVCAR-3 ovarian
NCI-H460 lung = test system: NCI-H460 lung
U251 CNS = test system: U251 CNS
SK-MEL-2 melanoma = test system: SK-MEL-2 melanoma
HT29 colon = test system: HT29 colon
BT-549 breast = test system: BT-549 breast

## O=c1ccc(=O)c2c(=O)c3ccccc3c(=O)c1=2
HCT-116 colon
  TGI: 61.1 µM
SNB-19 CNS
  TGI: > 100 µM
MOLT-4 leukemia
  TGI: > 100 µM
OVCAR-8 ovarian
  TGI: > 100 µM
OVCAR-3 ovarian
  TGI: 55.2 µM
NCI-H460 lung
  TGI: > 100 µM
U251 CNS
  TGI: > 100 µM
SK-MEL-2 melanoma
  TGI: > 100 µM

## O=C([CH-]C(=O)C(F)(F)F)c1ccccc1.O=C([CH-]C(=O)C(F)(F)F)c1ccccc1.O=C([CH-]C(=O)C(F)(F)F)c1ccccc1.O=C([CH-]C(=O)C(F)(F)F)c1ccccc1.[Eu+3].c1ccncc1
HCT-116 colon
  GI50: 7.53 µM
  TGI: 71 µM
SNB-19 CNS
  GI50: 4.33 µM
  TGI: 94.8 µM
MOLT-4 leukemia
  GI50: 4.26 µM
  TGI: 36.2 µM
OVCAR-8 ovarian
  GI50: 6.58 µM
  TGI: > 100 µM
HT29 colon
  GI50: 6.97 µM
  TGI: > 100 µM
NCI-H460 lung
  GI50: 5.62 µM
  TGI: 43.7 µM
U251 CNS
  GI50: 5.02 µM
  TGI: > 100 µM

## CCN(CC)c1ccc2c(c1)Nc1cc(=C(C#N)C#N)c3ccccc3c1=N2
HCT-116 colon
  TGI: > 100 µM
SNB-19 CNS
  TGI: > 100 µM
MOLT-4 leukemia
  TGI: > 100 µM
OVCAR-8 ovarian
  TGI: > 100 µM
OVCAR-3 ovarian
  TGI: > 100 µM
HT29 colon
  TGI: > 100 µM
NCI-H460 lung
  TGI: > 100 µM
U251 CNS
  TGI: > 100 µM
SK-MEL-2 melanoma
  TGI: > 100 µM

## CCOC(=O)CC1NC(=O)CS1 (centres undefined)
HCT-116 colon
  TGI: 61.7 µM
SNB-19 CNS
  TGI: > 100 µM
MOLT-4 leukemia
  TGI: > 100 µM
OVCAR-8 ovarian
  TGI: > 100 µM
OVCAR-3 ovarian
  TGI: > 100 µM
HT29 colon
  TGI: > 100 µM
NCI-H460 lung
  TGI: > 100 µM
U251 CNS
  TGI: > 100 µM

## O=C(OC[C@H]1O[C@@H](OC(=O)c2cc(O)c(O)c(O)c2)[C@H](OC(=O)c2cc(O)c(O)c(O)c2)[C@@H](OC(=O)c2cc(O)c(O)c(O)c2)[C@@H]1OC(=O)c1cc(O)c(O)c(O)c1)c1cc(O)c(O)c(O)c1
HCT-116 colon
  TGI: 16.8 µM
SNB-19 CNS
  TGI: > 100 µM
MOLT-4 leukemia
  TGI: 86.5 µM
OVCAR-8 ovarian
  TGI: 24.9 µM
OVCAR-3 ovarian
  TGI: 17.7 µM
HT29 colon
  TGI: 73.7 µM
NCI-H460 lung
  TGI: 24.8 µM
U251 CNS
  TGI: 54.3 µM
SK-MEL-2 melanoma
  TGI: 26.4 µM

## Cc1cc2c(=O)c3ccccc3[nH]c2c(C(=O)O)c1C
HCT-116 colon
  TGI: > 100 µM
SNB-19 CNS
  TGI: > 100 µM
MOLT-4 leukemia
  TGI: > 100 µM
OVCAR-8 ovarian
  TGI: > 100 µM
OVCAR-3 ovarian
  TGI: > 100 µM
HT29 colon
  TGI: > 100 µM
NCI-H460 lung
  TGI: > 100 µM
U251 CNS
  TGI: > 100 µM
SK-MEL-2 melanoma
  TGI: > 100 µM

## C=C(C=O)CCCC(C)[C@@H]1CCC23CC12CCC1[C@@]2(C)CCC(OC(C)=O)C(C)(C)C2CC(OC2OC(COC(C)=O)C(O)C(O)C2O)[C@]13C (some centres undefined)
HCT-116 colon
  TGI: 1.43 µM
SNB-19 CNS
  TGI: 13.2 µM
MOLT-4 leukemia
  TGI: 3.03 µM
OVCAR-8 ovarian
  TGI: 11.1 µM
OVCAR-3 ovarian
  TGI: 8.21 µM
HT29 colon
  TGI: 11.9 µM
NCI-H460 lung
  TGI: 16.1 µM
U251 CNS
  TGI: 8.56 µM
SK-MEL-2 melanoma
  TGI: 13.9 µM

## C[N+]1(C)C/C(=C\c2ccncc2)C(=O)/C(=C/c2ccncc2)C1
HCT-116 colon
  TGI: > 100 µM
SNB-19 CNS
  TGI: > 100 µM
MOLT-4 leukemia
  TGI: > 100 µM
OVCAR-8 ovarian
  TGI: > 100 µM
OVCAR-3 ovarian
  TGI: > 100 µM
HT29 colon
  TGI: > 100 µM
NCI-H460 lung
  TGI: > 100 µM
U251 CNS
  TGI: > 100 µM

## O=[N+]([O-])c1ccc2c(c1)[O][Sn]([I])([I])[O]2
HCT-116 colon
  GI50: > 100 µM
  TGI: > 100 µM
SNB-19 CNS
  GI50: > 100 µM
  TGI: > 100 µM
MOLT-4 leukemia
  GI50: 68.4 µM
  TGI: > 100 µM
OVCAR-8 ovarian
  GI50: > 100 µM
  TGI: > 100 µM
OVCAR-3 ovarian
  GI50: > 100 µM
  TGI: > 100 µM
HT29 colon
  GI50: > 100 µM
  TGI: > 100 µM
NCI-H460 lung
  GI50: > 100 µM
  TGI: > 100 µM
U251 CNS
  GI50: > 100 µM
  TGI: > 100 µM
SK-MEL-2 melanoma
  GI50: > 100 µM
  TGI: > 100 µM

## O=C1C2Cc3ccccc3CN2C(=O)N1CCN1CCCC1 (centres undefined)
SNB-19 CNS
  TGI: > 100 µM
MOLT-4 leukemia
  TGI: > 100 µM
OVCAR-8 ovarian
  TGI: > 100 µM
OVCAR-3 ovarian
  TGI: > 100 µM
NCI-H460 lung
  TGI: > 100 µM
U251 CNS
  TGI: > 100 µM
SK-MEL-2 melanoma
  TGI: > 100 µM

## COC(=O)c1c(-c2ccccc2)sc(-c2cccc3ccccc23)c1C(=O)OC
HCT-116 colon
  TGI: > 100 µM
SNB-19 CNS
  TGI: > 100 µM
MOLT-4 leukemia
  TGI: > 100 µM
OVCAR-8 ovarian
  TGI: > 100 µM
OVCAR-3 ovarian
  TGI: > 100 µM
HT29 colon
  TGI: > 100 µM
NCI-H460 lung
  TGI: > 100 µM
U251 CNS
  TGI: > 100 µM
SK-MEL-2 melanoma
  TGI: > 100 µM

## CN=C1SC(=Nc2ccc(N(C)C)cc2)N1C
HCT-116 colon
  TGI: > 100 µM
SNB-19 CNS
  TGI: > 100 µM
MOLT-4 leukemia
  TGI: > 100 µM
OVCAR-8 ovarian
  TGI: > 100 µM
OVCAR-3 ovarian
  TGI: > 100 µM
HT29 colon
  TGI: > 100 µM
NCI-H460 lung
  TGI: > 100 µM
U251 CNS
  TGI: > 100 µM
SK-MEL-2 melanoma
  TGI: 76.6 µM

## COC(=O)C1=C(CS(=O)c2ccccc2[N+](=O)[O-])ON(C)C1c1ccccc1 (centres undefined)
HCT-116 colon
  TGI: > 100 µM
SNB-19 CNS
  TGI: > 100 µM
MOLT-4 leukemia
  TGI: > 100 µM
OVCAR-8 ovarian
  TGI: 56.2 µM
OVCAR-3 ovarian
  TGI: > 100 µM
HT29 colon
  TGI: > 100 µM
NCI-H460 lung
  TGI: > 100 µM
U251 CNS
  TGI: > 100 µM
SK-MEL-2 melanoma
  TGI: > 100 µM

## CC(=O)Nc1ccc(S(=O)(=O)NNC(=O)c2cccnc2Nc2ccc(Cl)cc2)cc1
HCT-116 colon
  GI50: 7.22 µM
  TGI: > 100 µM
BT-549 breast
  GI50: 25.2 µM
  TGI: > 100 µM
SNB-19 CNS
  GI50: 14.1 µM
  TGI: > 100 µM
MOLT-4 leukemia
  GI50: 49.6 µM
  TGI: > 100 µM
OVCAR-8 ovarian
  GI50: 36.2 µM
  TGI: > 100 µM
OVCAR-3 ovarian
  GI50: 3.73 µM
  TGI: > 100 µM
HT29 colon
  GI50: 4 µM
  TGI: > 100 µM
NCI-H460 lung
  GI50: 4.69 µM
  TGI: > 100 µM
U251 CNS
  GI50: 23.8 µM
  TGI: > 100 µM

## O=c1[nH]c(=O)n(C2OC3COC2C3O)cc1F (centres undefined)
SNB-19 CNS
  TGI: > 100 µM
MOLT-4 leukemia
  TGI: > 100 µM
OVCAR-8 ovarian
  TGI: > 100 µM
OVCAR-3 ovarian
  TGI: > 100 µM
HT29 colon
  TGI: > 100 µM
NCI-H460 lung
  TGI: > 100 µM
U251 CNS
  TGI: > 100 µM
SK-MEL-2 melanoma
  TGI: > 100 µM

## COC1CC(OC(=O)c2ccccc2)C(OC(=O)c2ccccc2)C(C)O1 (centres undefined)
HCT-116 colon
  TGI: > 100 µM
SNB-19 CNS
  TGI: > 100 µM
MOLT-4 leukemia
  TGI: > 100 µM
OVCAR-8 ovarian
  TGI: > 100 µM
OVCAR-3 ovarian
  TGI: > 100 µM
NCI-H460 lung
  TGI: > 100 µM
U251 CNS
  TGI: > 100 µM
SK-MEL-2 melanoma
  TGI: > 100 µM

## CN1C(=O)C(Cl)(C(Cl)(Cl)S(=O)(=O)O)C(=O)c2ccccc21 (centres undefined)
HCT-116 colon
  TGI: > 100 µM
SNB-19 CNS
  TGI: > 100 µM
MOLT-4 leukemia
  TGI: > 100 µM
OVCAR-8 ovarian
  TGI: > 100 µM
OVCAR-3 ovarian
  TGI: > 100 µM
HT29 colon
  TGI: 73 µM
NCI-H460 lung
  TGI: > 100 µM
U251 CNS
  TGI: > 100 µM

## Cc1ccc2c(c1)C(c1cccc3ccccc13)OC2=O (centres undefined)
HCT-116 colon
  TGI: > 100 µM
SNB-19 CNS
  TGI: > 100 µM
MOLT-4 leukemia
  TGI: > 100 µM
OVCAR-8 ovarian
  TGI: > 100 µM
OVCAR-3 ovarian
  TGI: > 100 µM
HT29 colon
  TGI: > 100 µM
NCI-H460 lung
  TGI: > 100 µM
U251 CNS
  TGI: > 100 µM
SK-MEL-2 melanoma
  TGI: > 100 µM

## Cc1cc(N/N=C/c2nc(-c3ccc(Cl)cc3)oc2C)c2cc(Cl)ccc2n1
HCT-116 colon
  GI50: 2.14 µM
  TGI: 4.59 µM
BT-549 breast
  GI50: 8.61 µM
  TGI: 21.1 µM
SNB-19 CNS
  GI50: 3.95 µM
  TGI: 16.1 µM
MOLT-4 leukemia
  GI50: 2.34 µM
  TGI: 9.11 µM
OVCAR-8 ovarian
  GI50: 2.05 µM
  TGI: 5.06 µM
OVCAR-3 ovarian
  GI50: 1.87 µM
  TGI: 3.45 µM
HT29 colon
  GI50: 1.97 µM
  TGI: 4.95 µM
U251 CNS
  GI50: 1.78 µM
  TGI: 3.37 µM
SK-MEL-2 melanoma
  GI50: 16.4 µM
  TGI: 31.8 µM

## OC12CC/C(=N/OCc3ccccc3)CC1c1ccccc12 (centres undefined)
HCT-116 colon
  TGI: > 100 µM
SNB-19 CNS
  TGI: > 100 µM
MOLT-4 leukemia
  TGI: > 100 µM
OVCAR-8 ovarian
  TGI: > 100 µM
OVCAR-3 ovarian
  TGI: > 100 µM
HT29 colon
  TGI: > 100 µM
NCI-H460 lung
  TGI: > 100 µM
U251 CNS
  TGI: > 100 µM
SK-MEL-2 melanoma
  TGI: > 100 µM
